Experimental data as given in publication PMC12040169 (PLOS Biology, 2025).

Key:
[1] = system: T1, C. trachomatis L2/434/Bu expressing GFP (CTL2-GFP); test: microbe, parasite or virus in culture; design: C. trachomatis total inclusion area by high-content imaging, normalised to DMSO; settings: Chlamydia trachomatis, HeLa, 28.5 h; total inclusion area; read-out: % of control remaining
T1 construct: L2/434/Bu GFP intracellular growth in HeLa cells
Procedure, shortened: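 GFP/resorufin bulk fluorescence read → fix → Hoechst stain → high-content imaging. Inclusion total area + count = growth proxy; nuclei count = host viability proxy. MIC calc per earlier method.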

in vitro [2] = test: in vitro; design: Viability of infected HeLa host cells, resazurin conversion, bulk resorufin fluorescence relative to DMSO; settings: human, hela cells; bulk resorufin, mean of 2
in vitro [3] = settings: human, hela cells, % viability
[4] = system: T2, CTL2-GFP (C. trachomatis L2/434/Bu, GFP-expressing); test: microbe, parasite or virus in culture; design: Intracellular C. trachomatis growth in HeLa cells, bulk GFP fluorescence relative to DMSO; settings: Chlamydia trachomatis, HeLa, 28.5 h; bulk GFP, mean of 2; read-out: % of control remaining
T2 construct: L2/434/Bu, GFP-expressing
Method: MICs were calculated as described above.

In the case of `CN(C)c1ncc(-c2cccc(Cl)c2)c(C2CCCN2C(=O)CC2CCCC2)n1` (stereo not drawn) [CBK286253], the activity at 1 µM [1] is reported as 105%, the activity at 5 µM [1] is reported as 82.7% and the activity at 10 µM [1] is reported as 44.1%. For the same compound, the viability at 28.5 h, 1 µM (in vitro [2]) was 97.3%, the viability at 28.5 h, 5 µM (in vitro [2]) was 106% and the viability at 28.5 h, 10 µM (in vitro [2]) was 110%. For the same compound, the viability at 28.5 h, 10 µM (in vitro [3]) was 120%, the activity at 1 µM [4] was 135% and the activity at 5 µM [4] was 91%. For the same compound, the activity at 10 µM [4] was 43.9%.
Work on `O=C(Nc1ccc(F)c(F)c1)NC1CCC2CN(CCOc3ccccc3)CC2C1` (stereo not drawn) [CBK083365T] yielded an activity at 1 µM [1] of 35.6%, an activity at 5 µM [1] of 0.438% and an activity at 10 µM [1] of 0.173%. It also gave a viability at 28.5 h, 1 µM (in vitro [2]) of 89.3%, a viability at 28.5 h, 5 µM (in vitro [2]) of 86.5% and a viability at 28.5 h, 10 µM (in vitro [2]) of 88.8%. It also gave a viability at 28.5 h, 10 µM (in vitro [3]) of 105%, an activity at 1 µM [4] of 34.9% and an activity at 5 µM [4] of 8.25%. For the same compound, the activity at 10 µM [4] was 5.26%.
`COc1cccc(C(=O)/C=C\Nc2ccc(S(=O)(=O)Nc3onc(C)c3C)cc2)c1` [CBK264206] showed an activity at 1 µM [1] of 68.5%, an activity at 5 µM [1] of 28.9% and an activity at 10 µM [1] of 19%. The viability at 28.5 h, 1 µM (in vitro [2]) was 106%, the viability at 28.5 h, 5 µM (in vitro [2]) was 104% and the viability at 28.5 h, 10 µM (in vitro [2]) was 114%. The viability at 28.5 h, 10 µM (in vitro [3]) was 93.4%, the activity at 1 µM [4] was 83.7% and the activity at 5 µM [4] was 25.4%. It also gave an activity at 10 µM [4] of 8.04%.
For `CCC(c1ccc(F)cc1)N(C)C(=O)Cn1cc(C(=O)NC2CCCCC2)ccc1=O` (stereo not drawn) [CBK286106], the activity at 1 µM [1] was 114%, the activity at 5 µM [1] was 27.8% and the activity at 10 µM [1] was 2.51%. It also gave a viability at 28.5 h, 1 µM (in vitro [2]) of 89.5%, a viability at 28.5 h, 5 µM (in vitro [2]) of 95.3% and a viability at 28.5 h, 10 µM (in vitro [2]) of 87.5%. The viability at 28.5 h, 10 µM (in vitro [3]) was 89.8%, the activity at 1 µM [4] was 128% and the activity at 5 µM [4] was 21.7%. It also gave an activity at 10 µM [4] of 7.58%.
For `Cc1cc(C)nc(NS(=O)(=O)c2ccc(NC(=O)N3c4ccccc4Sc4ccccc43)cc2)n1` [CBK263922], the activity at 1 µM [1] was 112%, the activity at 5 µM [1] was 51.2% and the activity at 10 µM [1] was 28.5%. For the same compound, the viability at 28.5 h, 1 µM (in vitro [2]) was 92.3%, the viability at 28.5 h, 5 µM (in vitro [2]) was 90.2% and the viability at 28.5 h, 10 µM (in vitro [2]) was 89.4%. The viability at 28.5 h, 10 µM (in vitro [3]) was 101%, the activity at 1 µM [4] was 115% and the activity at 5 µM [4] was 67.1%. For the same compound, the activity at 10 µM [4] was 28.2%.
`CCN(CC)CCNc1nc(-c2cccc(Cl)c2)nc2ccccc12` [CBK267265C] gave an activity at 1 µM [1] of 85%, an activity at 5 µM [1] of 45.3% and an activity at 10 µM [1] of 26.4%. For the same compound, the viability at 28.5 h, 1 µM (in vitro [2]) was 104%, the viability at 28.5 h, 5 µM (in vitro [2]) was 104% and the viability at 28.5 h, 10 µM (in vitro [2]) was 108%. It also gave a viability at 28.5 h, 10 µM (in vitro [3]) of 90.7%, an activity at 1 µM [4] of 108% and an activity at 5 µM [4] of 98.1%. The activity at 10 µM [4] was 55.5%.
In the case of `NCCCNc1ncc(C(=O)NCc2ccccc2)c(NCC2CCCCC2)n1` [CBK215386], the activity at 1 µM [1] is reported as 95.7%, the activity at 5 µM [1] is reported as 73.1% and the activity at 10 µM [1] is reported as 19.8%. It also gave a viability at 28.5 h, 1 µM (in vitro [2]) of 113%, a viability at 28.5 h, 5 µM (in vitro [2]) of 116% and a viability at 28.5 h, 10 µM (in vitro [2]) of 96.6%. It also gave a viability at 28.5 h, 10 µM (in vitro [3]) of 103%, an activity at 1 µM [4] of 97.9% and an activity at 5 µM [4] of 89.2%. For the same compound, the activity at 10 µM [4] was 32.4%.
For `O=C(N/N=C/c1c(O)ccc2ccccc12)c1ccc(CO)nc1` [CBK261375], the activity at 1 µM [1] was 112%, the activity at 5 µM [1] was 72.5% and the activity at 10 µM [1] was 32.1%. For the same compound, the viability at 28.5 h, 1 µM (in vitro [2]) was 89.8%, the viability at 28.5 h, 5 µM (in vitro [2]) was 84.2% and the viability at 28.5 h, 10 µM (in vitro [2]) was 76.9%. The viability at 28.5 h, 10 µM (in vitro [3]) was 84.7%, the activity at 1 µM [4] was 130% and the activity at 5 µM [4] was 69%. It also gave an activity at 10 µM [4] of 32.3%.
Work on `COc1cc(N)c2ncccc2c1` [CBK011972C] yielded an activity at 1 µM [1] of 85%, an activity at 5 µM [1] of 10.9% and an activity at 10 µM [1] of 1.09%. It also gave a viability at 28.5 h, 1 µM (in vitro [2]) of 101%, a viability at 28.5 h, 5 µM (in vitro [2]) of 81.1% and a viability at 28.5 h, 10 µM (in vitro [2]) of 80%. It also gave a viability at 28.5 h, 10 µM (in vitro [3]) of 77.7%, an activity at 1 µM [4] of 90.6% and an activity at 5 µM [4] of 23.4%. For the same compound, the activity at 10 µM [4] was 7.94%.
Compound `O=c1c2cnc3ccnn3c2ccn1C1CCCC1` [CBK288074] has an activity at 1 µM [1] of 65.5%, an activity at 5 µM [1] of 60.4% and an activity at 10 µM [1] of 4.02%. It also gave a viability at 28.5 h, 1 µM (in vitro [2]) of 103%, a viability at 28.5 h, 5 µM (in vitro [2]) of 106% and a viability at 28.5 h, 10 µM (in vitro [2]) of 109%. For the same compound, the viability at 28.5 h, 10 µM (in vitro [3]) was 107%, the activity at 1 µM [4] was 109% and the activity at 5 µM [4] was 72.3%. For the same compound, the activity at 10 µM [4] was 2.35%.
`O=C(Nc1cccc(OC(=O)c2cc(S(=O)(=O)N3CCCCC3)ccc2Cl)c1)c1ccco1` [CBK262186] showed an activity at 1 µM [1] of 101%, an activity at 5 µM [1] of 85.8% and an activity at 10 µM [1] of 33.3%. For the same compound, the viability at 28.5 h, 1 µM (in vitro [2]) was 101%, the viability at 28.5 h, 5 µM (in vitro [2]) was 96.6% and the viability at 28.5 h, 10 µM (in vitro [2]) was 100%. For the same compound, the viability at 28.5 h, 10 µM (in vitro [3]) was 110%, the activity at 1 µM [4] was 110% and the activity at 5 µM [4] was 106%. For the same compound, the activity at 10 µM [4] was 76.3%.
Compound `Cc1ccc(C(=O)NC2CCCC2)cc1[N+](=O)[O-]` [CBK001993] has an activity at 1 µM [1] of 116%, an activity at 5 µM [1] of 89.8% and an activity at 10 µM [1] of 50.4%. The viability at 28.5 h, 1 µM (in vitro [2]) was 112%, the viability at 28.5 h, 5 µM (in vitro [2]) was 110% and the viability at 28.5 h, 10 µM (in vitro [2]) was 104%. It also gave a viability at 28.5 h, 10 µM (in vitro [3]) of 102%, an activity at 1 µM [4] of 123% and an activity at 5 µM [4] of 123%. It also gave an activity at 10 µM [4] of 110%.
